Values quoted from earlier work in US11535670B2, “Combination therapies of HDAC inhibitors and PD-L1 inhibitors” (HUYABIO International, LLC, priority 2016, dated 2022).

Target: T1, HDAC 11 (Homo sapiens, UniProt Q96DB2)
T1 sequence (Q96DB2 1-347): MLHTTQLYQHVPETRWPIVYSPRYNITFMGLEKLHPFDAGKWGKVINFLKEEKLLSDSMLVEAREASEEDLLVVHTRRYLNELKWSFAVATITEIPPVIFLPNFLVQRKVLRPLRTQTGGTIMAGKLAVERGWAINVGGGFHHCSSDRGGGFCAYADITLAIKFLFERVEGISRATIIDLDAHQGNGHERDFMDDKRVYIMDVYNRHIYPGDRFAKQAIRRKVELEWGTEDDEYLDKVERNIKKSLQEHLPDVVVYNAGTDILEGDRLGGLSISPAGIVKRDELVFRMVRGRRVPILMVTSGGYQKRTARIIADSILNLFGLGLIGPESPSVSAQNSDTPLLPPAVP
Settings: cited from earlier work

Nc1cc(F)ccc1NC(=O)c1ccc(CNC(=O)/C=C/c2cccnc2)cc1 [HBI-8000, N-(2-amino-4-fluorophenyl)-4-[[[(2E)-1-oxo-3-(3-pyridinyl)-2-propen-1-yl]amino]methyl]benzamide]
activity at HDAC 11: has activity | activity at HDAC 11 compared with Entinostat (versus Entinostat): more active than Entinostat
